In this assay the target is T1, StOFOR2 (Sulfurisphaera tokodaii, UniProt Q96XT2+Q96XT4).
T1 construct: gene ST2435; recombinant in E. coli C43(DE3), genes from S. tokodaii genomic DNA in pOFORAB (pET-17b based), untagged; (ab)2 heterotetramer with TPP, Mg2+, [4Fe-4S]
Kind of assay: X-ray crystal structure, […] Å. The assay is classed as binding. To be noted: crystal soaked with 50 mM pyruvate for 30 min; active site, unreacted pyruvate.

T1 sequence (Q96XT2 whole entry): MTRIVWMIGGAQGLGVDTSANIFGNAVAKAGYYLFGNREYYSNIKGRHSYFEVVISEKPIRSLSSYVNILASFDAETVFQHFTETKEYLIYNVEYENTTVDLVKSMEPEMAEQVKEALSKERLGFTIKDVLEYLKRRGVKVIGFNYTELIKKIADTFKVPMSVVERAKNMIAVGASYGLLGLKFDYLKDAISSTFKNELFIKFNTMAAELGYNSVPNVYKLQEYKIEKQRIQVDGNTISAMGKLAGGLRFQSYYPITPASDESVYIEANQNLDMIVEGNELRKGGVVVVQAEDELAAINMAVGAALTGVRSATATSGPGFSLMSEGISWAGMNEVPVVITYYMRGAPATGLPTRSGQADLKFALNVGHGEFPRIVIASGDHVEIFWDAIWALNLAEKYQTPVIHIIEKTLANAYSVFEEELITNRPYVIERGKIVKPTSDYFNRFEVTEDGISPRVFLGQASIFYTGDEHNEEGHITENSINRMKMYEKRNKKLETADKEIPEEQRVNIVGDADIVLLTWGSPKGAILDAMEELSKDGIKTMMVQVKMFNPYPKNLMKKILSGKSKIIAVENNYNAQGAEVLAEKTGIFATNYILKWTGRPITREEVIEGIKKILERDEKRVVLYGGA
T1 sequence (Q96XT4 whole entry): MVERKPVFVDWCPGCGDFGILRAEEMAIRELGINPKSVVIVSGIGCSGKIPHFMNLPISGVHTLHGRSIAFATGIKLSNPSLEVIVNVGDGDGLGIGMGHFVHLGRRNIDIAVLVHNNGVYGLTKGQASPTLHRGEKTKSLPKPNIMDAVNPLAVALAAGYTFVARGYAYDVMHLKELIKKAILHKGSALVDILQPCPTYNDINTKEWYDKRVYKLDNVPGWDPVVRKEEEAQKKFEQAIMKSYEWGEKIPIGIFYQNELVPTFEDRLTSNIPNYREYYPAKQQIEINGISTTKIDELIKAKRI

Regarding `CC(=O)C(=O)O` [pyruvate], the “X-ray crystal structure, 2.2 Å” value is “we observed a separate density peak corresponding to the approximate size and shape of an unreacted pyruvate”.
